What is called melting point is the temperature of the solid-liquid transition. For `CC(=O)O[C@H]1OCC[C@@H]1NC(=O)[C@H](CC(C)C)NC(=O)c1ccc2c(c1)Nc1ccccc1S2` [Example 18.1, (2R,3S)-3-({(2S)-4-methyl-2-[(10H-phenothiazin-2-ylcarbonyl)amino]-pentanoyl}amino)tetrahydro-2-furanyl acetate], the melting point was 199 to 201 °C.
For `CC(=O)O[C@@H]1OCC[C@@H]1NC(=O)[C@H](CC(C)C)NC(=O)c1ccc2c(c1)Nc1ccccc1S2` [Example 18.2, (2S,3S)-3-({(2S)-4-methyl-2-[(10H-phenothiazin-2-ylcarbonyl)amino]-pentanoyl}amino)tetrahydro-2-furanyl acetate], the melting point was in the range of 205 to 208 °C.
